Measured values: article PMC12040169 (PLOS Biology, 2025)

Assay: in vitro
Conditions: human, hela cells, % viability

| SMILES | viability at 28.5 h, 10 µM [%] |
| --- | --- |
| CCOC(=O)c1cc(Cl)cnc1C1CCN(C(=O)C2CC2)CC1 [CBK284810] | 94.5 |
| CC(C)(C)NC(=O)c1ccc(-n2ccnc2)c(-n2cccc2)c1 [CBK284811] | 103 |
| Cc1ccc(CNC(=O)c2ccc(-n3ccnc3)c(-n3cccc3)c2)o1 [CBK284812] | 99.2 |
| O=c1c2ccccc2nc2n1CCN(Cc1ccc(F)cc1)CC2 [CBK284814] | 96.9 |
| CC(C)(C)NC(=O)C1C2CCC3(CC(=O)c4ccccc4O3)C21 (centres unmarked) [CBK284821] | 81.8 |
| COc1ccccc1CN1CCC2(CCCNC2=O)CC1 [CBK284823] | 85.2 |
| O=C1NCCCC12CCN(Cc1cccc3cccnc13)CC2 [CBK284826] | 92.3 |
| O=C1CCN(Cc2ccccc2)CCN1C(=O)c1cccs1 [CBK284828] | 88.8 |
| CCC(CC)C(=O)N1CCN(Cc2ccccc2)CCC1=O [CBK284830] | 87.9 |
| COCCCNC(=O)Cn1cccc2cc(-c3ccc(F)cc3)nc1-2 [CBK284834] | 93.4 |
| Cc1ncc(CN2CCCC(O)(c3ccc(F)cc3)CC2)n1C (centres unmarked) [CBK284836] | 89.6 |
| CC1CC1C(=O)NCCc1c[nH]c2cccc(C3(O)CCOCC3)c12 (centres unmarked) [CBK284840] | 95.7 |
| O=C(CCn1c(C(F)(F)F)cc2cccnc21)NCc1ccncc1 [CBK284841] | 90.5 |
| Cc1cc(C2CCCCCN2C(=O)c2c(C)noc2C)on1 (centres unmarked) [CBK284844] | 90 |
| Cc1cc(C2CCCCCN2C(=O)c2c(C)noc2C)no1 (centres unmarked) [CBK284845] | 85.1 |
| COCC(=O)NC1CCN(CC2(c3ccccc3F)CCCC2)CC1 [CBK284850] | 114 |
| Cc1cc(C)n(CCCC(=O)N2CCc3ncc(Cl)cc3C2)n1 [CBK284852] | 103 |
| Cc1cc(C(F)F)nn1CC(=O)N1CCc2ncc(Cl)cc2C1 [CBK284853] | 108 |
| O=C(c1cc(C2CC2)on1)N1CCc2ncc(Cl)cc2C1 [CBK284855] | 106 |
| CC(C)NC(=O)Cn1c(-c2ccc(F)cc2)cc2cccnc21 [CBK284862] | 107 |
| COCC(C)NC(=O)Cn1c(-c2ccc(F)cc2)cc2cccnc21 (centres unmarked) [CBK284863] | 113 |
| O=C(CCn1c(C(F)(F)F)cc2cccnc21)NC1CCCC1 [CBK284864] | 103 |
| O=C(CCn1c(C(F)(F)F)cc2cccnc21)NC1CCCOC1 (centres unmarked) [CBK284867] | 109 |

| SMILES | viability at 28.5 h, 10 µM [%] |
| --- | --- |
| CN1CC(C(=O)N2CCC(c3cc4ccccc4cn3)CC2)CC1=O (centres unmarked) [CBK284870] | 96.8 |
| Cc1ccc(CN2CCCC(n3c(=O)oc4ccccc43)C2)o1 (centres unmarked) [CBK284871] | 95.6 |
| Cc1ccc2c(c1)C(NC(=O)C1CC1C)CC1(CCOCC1)O2 (centres unmarked) [CBK284880] | 91.8 |
| Cc1cc(C[C@@H]2COC[C@H]2NCCc2ccccc2)on1 [CBK284882] | 95.5 |
| Cc1cc(C[C@@H]2COC[C@H]2NCc2ccc(C)c(C)c2)on1 [CBK284883] | 106 |
| Cc1cc(C[C@@H]2COC[C@H]2NCc2ccc(C(C)C)cc2)on1 [CBK284884] | 107 |
| O=C(CCn1c(C(F)(F)F)cc2cccnc21)N1CCC(O)CC1 [CBK284887] | 89.7 |
| O=C1NC[C@]2(CC[C@@H](C(=O)NC3CC3)CC2)Oc2ccc(Cl)cc21 [CBK284889] | 94.2 |
| CN(C)[C@@H]1CN(Cc2ccccc2O)C[C@H]1c1cn(C)c2ccccc12 [CBK284895] | 88.3 |
| Cn1nc(C2CCN(C(=O)C3CCCCC3)CC2)c2cccnc21 [CBK284897] | 78.6 |
| Cn1nc(C2CCN(C(=O)C3CCCC3)CC2)c2cccnc21 [CBK284899] | 101 |
| O=C(c1ccccc1F)N1CCC(c2n[nH]c3ncccc23)CC1 [CBK284903] | 91.7 |
| O=C(c1cccs1)N1CCC(c2n[nH]c3ncccc23)CC1 [CBK284904] | 92.3 |
| O=C(C1CCCCC1)N1CCC(c2n[nH]c3ncccc23)CC1 [CBK284905] | 85.7 |
| O=C(CCc1ccccc1)N1CCC(c2n[nH]c3ncccc23)CC1 [CBK284906] | 94.3 |
| O=C(Cc1ccccc1F)N1CCC(c2n[nH]c3ncccc23)CC1 [CBK284908] | 89.6 |
| Cc1ccnn1CCC(=O)N1CCC(c2cc3cccnc3[nH]2)CC1 [CBK284912] | 95.2 |
| Cc1cc(C(=O)N2CCCCCC2c2c(Cl)cnn2C)on1 (centres unmarked) [CBK284916] | 99.3 |
| Cc1noc(C)c1C(=O)N1CCCCCC1c1ccn(C)n1 (centres unmarked) [CBK284917] | 90.8 |
| CCCc1cc(C2CCCCCN2C(=O)c2c(C)noc2C)no1 (centres unmarked) [CBK284919] | 87.7 |
| CN(C)C[C@H]1CC[C@]2(CC1)CN(C(=O)C1CC1)Cc1ccccc1O2 [CBK284920] | 101 |
| CCOC(=O)C1(Cc2cc(-c3ccccc3)no2)CCNCC1 [CBK284924] | 111 |
| CCC(CC)C(=O)N1CCCC(c2cc3cccnc3[nH]2)C1 (centres unmarked) [CBK284926] | 100 |

| SMILES | viability at 28.5 h, 10 µM [%] |
| --- | --- |
| Cc1ccn(CCC(=O)N2CCCC(c3cc4cccnc4[nH]3)C2)n1 (centres unmarked) [CBK284927] | 99.7 |
| Cn1nccc1C(=O)N1CCCC(c2cc3cccnc3[nH]2)C1 (centres unmarked) [CBK284929] | 92.7 |
| CC(C)NC(=O)CCn1c(-c2ccncc2)cc2cccnc21 [CBK284931] | 111 |
| Cc1cc(C[C@@H]2CCC[C@H]2NCc2ccncc2)on1 [CBK284934] | 98.6 |
| Cc1ccc(O)c(CN[C@@H]2CCC[C@H]2Cc2cc(C)no2)c1 [CBK284936] | 101 |
| O=C(CC1CCCC1)N1CCCC(c2cc3cccnc3[nH]2)C1 (centres unmarked) [CBK284940] | 98.6 |
| O=C(C1CCOCC1)N1CCCC(c2cc3cccnc3[nH]2)C1 (centres unmarked) [CBK284941] | 109 |
| Cn1nc(C2CCN(C(=O)CC3CCCC3)CC2)c2cccnc21 [CBK284943] | 111 |
| Cc1ccccc1C(=O)N1CCC(O)(Cn2ccnc2C)CC1 [CBK284950] | 105 |
| CN(C)[C@@H]1CN(Cc2ccc(O)cc2)C[C@H]1c1cn(C)c2ccccc12 [CBK284952] | 108 |
| Cc1nc(C)c(C(=O)N2C3CCC2c2cc(Cl)cnc2C3)s1 (centres unmarked) [CBK284953] | 103 |
| Cc1nccn1CC1(O)CCN(CC(C)c2ccccc2)CC1 (centres unmarked) [CBK284954] | 107 |
| CCCn1ncc(CN2CCCC(c3cc4cccnc4[nH]3)C2)c1C (centres unmarked) [CBK284957] | 95.1 |
| CN1CC(C(=O)N2CCCC(c3cc4cccnc4[nH]3)C2)CC1=O (centres unmarked) [CBK284958] | 92.5 |
| O=C(CCCn1ccnc1)N1CCCC(c2cc3cccnc3[nH]2)C1 (centres unmarked) [CBK284959] | 107 |
| O=C(CCn1c(C(F)(F)F)cc2cccnc21)N1CCCC1 [CBK284962] | 106 |
| O=C(CCn1c(-c2ccccn2)cc2cccnc21)NC1CCCC1 [CBK284965] | 98.3 |
| CC(=O)NC(c1nccs1)C1CCCN(C(=O)C2CCCC2)C1 (centres unmarked) [CBK284966] | 101 |
| CC(C)c1cc(C(=O)N2CCCCCC2c2cnn(C)c2)no1 (centres unmarked) [CBK284971] | 108 |
| Cn1ncc(Cl)c1C1CCCCCN1C(=O)c1cc(C2CC2)on1 (centres unmarked) [CBK284973] | 102 |
| O=C(C1CCCO1)N1CCCC(c2cc3cccnc3[nH]2)C1 (centres unmarked) [CBK284978] | 101 |
| O=C(C1CCCC1)N1CCCC(c2cc3cccnc3[nH]2)C1 (centres unmarked) [CBK284979] | 105 |
| CC1CN(C(=O)CCn2c(C(F)F)cc3cccnc32)CC(C)O1 (centres unmarked) [CBK284984] | 95.3 |

| SMILES | viability at 28.5 h, 10 µM [%] |
| --- | --- |
| Cc1cc(C(=O)N2CCC(c3nn(C)c4ncccc34)CC2)cs1 [CBK284987] | 104 |
| O=C1CCC(C(=O)N2CCCC(c3cc4ccccc4cn3)C2)CC1 (centres unmarked) [CBK284989] | 102 |
| O=C(c1c(F)cccc1F)N1C2CCC1c1snnc1C2 (centres unmarked) [CBK284990] | 91.5 |
| CC(=O)N1Cc2ccccc2OC2(CCCN(C(=O)C3CC3)C2)C1 (centres unmarked) [CBK284991] | 97.1 |
| O=C(c1ccco1)N1CCN(C2C3CCCC2CNC3)CC1 (centres unmarked) [CBK284992] | 94.4 |
| CCn1cncc1CN1CCCC(c2cc3cccnc3[nH]2)C1 (centres unmarked) [CBK284993] | 98.5 |
| CC(C)C(=O)N1CCCC(c2cc3cccnc3[nH]2)C1 (centres unmarked) [CBK284994] | 96.4 |
| Cc1nc(C)c(C(=O)N2CCCC(c3cc4cccnc4[nH]3)C2)s1 (centres unmarked) [CBK284995] | 97.4 |
| CC(CC(=O)N1CCCC(c2cc3cccnc3[nH]2)C1)n1cccn1 (centres unmarked) [CBK284996] | 86.2 |
| Cc1nc(C)c(C(=O)N2CCC(c3cc4cccnc4[nH]3)CC2)s1 [CBK284998] | 88.5 |
| O=C(Cc1ccsc1)N1CCC(c2cc3cccnc3[nH]2)CC1 [CBK285000] | 85.6 |
| CCC(C)NC(=O)Cn1c(C2CCNCC2)cc2cccnc21 (centres unmarked) [CBK285003] | 103 |
| Cc1csc(C(Cc2cccs2)NC(=O)Cc2ccccn2)n1 (centres unmarked) [CBK285005] | 94.3 |
| CCC(=O)N1C[C@@H](N(C)C)[C@H](c2cn(C)c3ccccc23)C1 [CBK285008] | 91.3 |
| COCC(C)NC(=O)Cn1cccc2cc(C(F)F)nc1-2 (centres unmarked) [CBK285011] | 104 |
| CC(C)N(C(=O)Cn1cccc2cc(C(F)F)nc1-2)C(C)C [CBK285012] | 85.5 |
| O=C(Cn1c(C2CCNCC2)cc2cccnc21)N1CCCC1 [CBK285013] | 96.3 |
| O=C(Cn1c(C2CCCNC2)cc2cccnc21)N1CCCCCC1 (centres unmarked) [CBK285014] | 86.3 |
| Nc1cc2ccccc2nc1C1CCN(C(=O)C2CC=CCC2)CC1 (centres unmarked) [CBK285016] | 88.9 |
| Cc1nccn1CC1(O)CCN(Cc2cn(C)c3ccccc23)CC1 [CBK285017] | 102 |
| Cn1nc(C2CCN(C(=O)c3ccccc3F)CC2)c2cccnc21 [CBK285019] | 106 |
| CC1CCN(Cc2c(C3CCNCC3)[nH]c3ncccc23)CC1 [CBK285022] | 91.7 |
| CN1CCN(C(=O)CCn2c(C(F)F)cc3cccnc32)CC1 [CBK285023] | 101 |
